Measurements taken from US20050137135A1 (priority 2002, published 2005).
Square brackets hold non-standard residues; d marks the D form. Ends that are not written are not given here. Peptide text beside a SMILES is read from it. Ahx = NCCCCCC(=O)O

Columns and labels:
[1] = target: T1, rat pancreatic islet (wild type) GIP-receptor (Rattus norvegicus, UniProt P43219); experiment: cAMP production in CHO-K1 cells expressing the GIP-receptor (wtGIP-R1 cells); format: cell-based; details: for cAMP Production (Fold Basal) 10 μM: 10 μM peptide; for cAMP Production (Fold Basal) 10 μM / cAMP Production (Fold Basal) 20 μM: basal cyclic AMP = 2.737 ± 0.079 fmol/1000 cells; for cAMP Production (Fold Basal) 20 μM: 20 μM peptide; for cAMP Production Max. cAMP (Fold Basal): Table 3, cyclic AMP stimulated by 20 μM peptide if plateau levels were not achieved
T1 construct: expressed in transfected cells; host or cells: CHO-K1 (Chinese hamster ovary)
T1 sequence (P43219 19-455): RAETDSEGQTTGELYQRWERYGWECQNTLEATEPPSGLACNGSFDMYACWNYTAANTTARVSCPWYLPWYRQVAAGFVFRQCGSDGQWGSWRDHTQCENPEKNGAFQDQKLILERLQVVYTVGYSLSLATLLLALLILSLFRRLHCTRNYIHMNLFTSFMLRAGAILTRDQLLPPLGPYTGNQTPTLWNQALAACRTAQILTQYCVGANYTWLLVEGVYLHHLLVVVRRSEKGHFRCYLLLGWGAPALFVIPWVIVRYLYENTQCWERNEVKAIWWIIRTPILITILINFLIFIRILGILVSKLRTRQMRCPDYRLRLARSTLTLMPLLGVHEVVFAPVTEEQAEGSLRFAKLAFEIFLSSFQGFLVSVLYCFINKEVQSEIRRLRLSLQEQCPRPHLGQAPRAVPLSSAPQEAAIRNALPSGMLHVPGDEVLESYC
Method: (§1) Cells were cultured in DMEM/F12, supplemented with 10% newborn calf serum, 50 units/ml penicillin G, and 50 μg/ml streptomycin (Culture media and antibiotics from Gibco BRL, Life Technologies). Cells were grown in 75 cm^2 flasks until 80-90% confluent, when they were split and seeded onto 24 well plates at a density of 50,000 cells/well. Experiments were carried out 48 h later.
Cells were extracted with 70% ethanol and cAMP levels measured by radioimmunoassay (Biomedical Technologies, Stoughton, Mass.). Data are expressed as fmol/1000 cells or % maximal GIP1-42-stimulated cAMP production (inhibition experiments).

[2] = target: T1, rat pancreatic islet (wild type) GIP-receptor; experiment: biochemical; format: binding; details: for inhibition at 20 µM: read-out: Receptor Binding % Displacement at 20 μM; for Receptor Binding % Displacement at 10 μM: 10 μM peptide, 125I-GIP; for Percent displacement of 125I-GIP from wtGIPR cells: 50 micromolar peptide analogue, FIG. 9
Method: as §1
Binding studies using ^125I-labeled spGIP1-42, purified by high performance liquid chromatography (HPLC), were performed essentially as described previously-[21]. wtGIP-R1 Cells (1-5×10^5/well) were washed twice at 4° C. in binding buffer (BB), consisting of DMEM/F12 (GIBCO), 15 mM HEPES, 0.1% bovine serum albumin (BSA), 1% Trasylol (aprotinin; Bayer), pH 7.4. They were incubated for 12-16 h at 4° C. with ^125I-spGIP (50,000 cpm) in the presence or absence of unlabeled GIP1-42 or analogue. Following incubation, cells were washed twice with ice cold buffer, solubilized with 0.1 M NaOH (1 ml), and transferred to culture tubes for counting of cell-associated radioactivity. Nonspecific binding was defined as that measured in the presence of 1 μM GIP1-42 or GIP1-30, and specific binding expressed as % of binding in the absence of competitor (% B/Bo).

Molecule	inhibition at 20 µM [2] [%]	cAMP Production Max. cAMP (Fold Basal) [1] [Fold Basal]	also measured
KIRQQDFVNWLLAQK-NH2 [16-30NH2]			cAMP Production (Fold Basal) 10 μM [1]: 1.04 ± 0.06 Fold Basal; cAMP Production (Fold Basal) 20 μM [1]: 0.80 ± 0.02 Fold Basal
YAEGTFEKEEKEKEEKEQQDFVNWLLAQK-NH2	75.1 ± 2.7	84.9 ± 8.1	
YAEGTFISDYSIAMQQDFVNWLLAQK-NH2 [GIP(1-14)(19-30)NH2]	95.4 ± 0.7	127 ± 22	
CC[C@H](C)[C@H](NC(=O)[C@H](CO)NC(=O)[C@H](Cc1ccc(O)cc1)NC(=O)[C@H](CC(=O)O)NC(=O)[C@H](CO)NC(=O)[C@@H](NC(=O)[C@H](Cc1ccccc1)NC(=O)[C@@H](NC(=O)CNC(=O)[C@H](CCC(=O)O)NC(=O)[C@H](C)NC(=O)[C@@H](N)Cc1ccc(O)cc1)[C@@H](C)O)[C@@H](C)CC)C(=O)N[C@@H](C)C(=O)N[C@@H](CCSC)C(=O)NCCCCCC(=O)N[C@@H](CCC(N)=O)C(=O)N[C@@H](CCC(N)=O)C(=O)N[C@@H](CC(=O)O)C(=O)N[C@@H](Cc1ccccc1)C(=O)N[C@H](C(=O)N[C@@H](CC(N)=O)C(=O)N[C@@H](Cc1c[nH]c2ccccc12)C(=O)N[C@@H](CC(C)C)C(=O)N[C@@H](CC(C)C)C(=O)N[C@@H](C)C(=O)N[C@@H](CCC(N)=O)C(=O)N[C@@H](CCCCN)C(N)=O)C(C)C [GIP(1-14)(Ahx)1(19-30)NH2] (H-YAEGTFISDYSIAM[Ahx]QQDFVNWLLAQK-NH2; N-terminus assumed)	86.1 ± 1.9	102.1 ± 5.0	
CC(C)C[C@H](NC(=O)[C@H](CC(C)C)NC(=O)[C@H](Cc1c[nH]c2ccccc12)NC(=O)[C@H](CC(N)=O)NC(=O)[C@@H](NC(=O)[C@H](Cc1ccccc1)NC(=O)[C@H](CC(=O)O)NC(=O)[C@H](CCC(N)=O)NC(=O)[C@H](CCC(N)=O)NC(=O)CCCCCNC(=O)CCCCCNC(=O)[C@H](Cc1ccccc1)NC(=O)[C@@H](NC(=O)CNC(=O)[C@H](CCC(=O)O)NC(=O)[C@H](C)NC(=O)[C@@H](N)Cc1ccc(O)cc1)[C@@H](C)O)C(C)C)C(=O)N[C@@H](C)C(=O)N[C@@H](CCC(N)=O)C(=O)N[C@@H](CCCCN)C(N)=O [GIP(1-6)(Ahx)2(19-30)NH2] (H-YAEGTF[Ahx][Ahx]QQDFVNWLLAQK-NH2; N-terminus assumed)	75.3 ± 3.3	2.55 ± 0.84	
1-7NH2: GIP fragment 1-7 amide (YAEGTFI-NH2)			Receptor Binding % Displacement at 10 μM [2]: −6.1 ± 3.4%
YAEGTFISDYSIAMAAAAQQDFVNWLLAQK-NH2 [GIP(1-14)(AAAA)(19-30)NH2]	100 ± 0.9	82.1 ± 2.8	
CC[C@H](C)[C@H](NC(=O)[C@H](CO)NC(=O)[C@H](Cc1ccc(O)cc1)NC(=O)[C@H](CC(=O)O)NC(=O)[C@H](CO)NC(=O)[C@@H](NC(=O)[C@H](Cc1ccccc1)NC(=O)[C@@H](NC(=O)CNC(=O)[C@H](CCC(=O)O)NC(=O)[C@H](C)NC(=O)[C@@H](N)Cc1ccc(O)cc1)[C@@H](C)O)[C@@H](C)CC)C(=O)N[C@@H](C)C(=O)N[C@@H](CCSC)C(=O)NCCCCCC(=O)NCCCCCC(=O)NCCCCCC(=O)N[C@@H](CCC(N)=O)C(=O)N[C@@H](CCC(N)=O)C(=O)N[C@@H](CC(=O)O)C(=O)N[C@@H](Cc1ccccc1)C(=O)N[C@H](C(=O)N[C@@H](CC(N)=O)C(=O)N[C@@H](Cc1c[nH]c2ccccc12)C(=O)N[C@@H](CC(C)C)C(=O)N[C@@H](CC(C)C)C(=O)N[C@@H](C)C(=O)N[C@@H](CCC(N)=O)C(=O)N[C@@H](CCCCN)C(N)=O)C(C)C [GlP(1-14)(Ahx)3(19-30)NH2] (H-YAEGTFISDYSIAM[Ahx][Ahx][Ahx]QQDFVNWLLAQK-NH2; N-terminus assumed)	82.7 ± 3.2	49.5 ± 1.6	
YAEGTFAAAAQQDFVNWLLAQK-NH2 [GIP(l-6)(AAAA)(19-30)NH2]	88.7 ± 3	7.21 ± 0.99	
YAEGTFEKEKQQDFVNWLLAQK-NH2 [GIP(1-6)(EKEK)(19-30)NH2]	86.8 ± 1.6	8.17 ± 0.87	
YAAGTFISDYSIAM-OH [A3]			Percent displacement of 125I-GIP from wtGIPR cells [2]: unable to displace measurable
YAEGAFISDYSIAM-OH [A5]			Percent displacement of 125I-GIP from wtGIPR cells [2]: unable to displace measurable
CC[C@H](C)[C@H](NC(=O)[C@H](CO)NC(=O)[C@H](Cc1ccc(O)cc1)NC(=O)[C@H](CC(=O)O)NC(=O)[C@H](CO)NC(=O)[C@@H](NC(=O)[C@H](Cc1ccccc1)NC(=O)[C@@H](NC(=O)CNC(=O)[C@H](CCC(=O)O)NC(=O)[C@H](C)NC(=O)[C@@H](N)Cc1ccc(O)cc1)[C@@H](C)O)[C@@H](C)CC)C(=O)N[C@@H](C)C(=O)N[C@@H](CCSC)C(=O)N[C@@H](CC(=O)O)C(=O)N[C@@H](CCCCN)C(=O)N[C@H](C(=O)N[C@@H](Cc1c[nH]cn1)C(=O)N[C@@H](CCC(N)=O)C(=O)N[C@@H](CCC(N)=O)C(=O)N[C@@H](CC(=O)O)C(=O)N[C@@H](Cc1ccccc1)C(=O)N[C@H](C(=O)N[C@@H](CC(N)=O)C(=O)N[C@@H](Cc1c[nH]c2ccccc12)C(=O)N[C@@H](CC(C)C)C(=O)N[C@@H](CC(C)C)C(=O)N[C@@H](C)C(=O)N[C@@H](CCC(N)=O)C(=O)N[C@@H](CCCCN)C(=O)NCC(=O)N[C@@H](CCCCN)C(=O)N[C@@H](CCCCN)C(=O)N[C@@H](CC(N)=O)C(=O)N[C@@H](CC(=O)O)C(=O)N[C@@H](Cc1c[nH]c2ccccc12)C(=O)N[C@@H](CCCCN)C(=O)N[C@@H](Cc1c[nH]cn1)C(=O)N[C@@H](CC(N)=O)C(=O)N[C@H](C(=O)N[C@H](C(=O)N[C@@H](CCC(N)=O)C(=O)O)[C@@H](C)O)[C@@H](C)CC)C(C)C)[C@@H](C)CC [GIP(1-42)OH, reference compound]	100		Receptor Binding % Displacement at 10 μM [2]: 100%
CC(C)C[C@H](NC(=O)[C@H](CC(C)C)NC(=O)[C@H](Cc1c[nH]c2ccccc12)NC(=O)[C@H](CC(N)=O)NC(=O)[C@@H](NC(=O)[C@H](Cc1ccccc1)NC(=O)[C@H](CC(=O)O)NC(=O)[C@H](CCC(N)=O)NC(=O)[C@H](CCC(N)=O)NC(=O)CCCCCNC(=O)CCCCCNC(=O)CCCCCNC(=O)[C@H](Cc1ccccc1)NC(=O)[C@@H](NC(=O)CNC(=O)[C@H](CCC(=O)O)NC(=O)[C@H](C)NC(=O)[C@@H](N)Cc1ccc(O)cc1)[C@@H](C)O)C(C)C)C(=O)N[C@@H](C)C(=O)N[C@@H](CCC(N)=O)C(=O)N[C@@H](CCCCN)C(N)=O [GIP(1-6)(Ahx)3(19-30)NH2] (H-YAEGTF[Ahx][Ahx][Ahx]QQDFVNWLLAQK-NH2; N-terminus assumed)	67.1 ± 1	13.5 ± 1.5	
CC[C@H](C)[C@H](NC(=O)[C@H](CCCCN)NC(=O)[C@@H](N)CC(=O)O)C(=O)N[C@@H](Cc1c[nH]cn1)C(=O)N[C@@H](CCC(N)=O)C(=O)N[C@@H](CCC(N)=O)C(=O)N[C@@H](CC(=O)O)C(=O)N[C@@H](Cc1ccccc1)C(=O)N[C@H](C(=O)N[C@@H](CC(N)=O)C(=O)N[C@@H](Cc1c[nH]c2ccccc12)C(=O)N[C@@H](CC(C)C)C(=O)N[C@@H](CC(C)C)C(=O)N[C@@H](C)C(=O)N[C@@H](CCC(N)=O)C(=O)N[C@@H](CCCCN)C(=O)NCC(=O)N[C@@H](CCCCN)C(=O)N[C@@H](CCCCN)C(=O)N[C@@H](CC(N)=O)C(=O)N[C@@H](CC(=O)O)C(=O)N[C@@H](Cc1c[nH]c2ccccc12)C(=O)N[C@@H](CCCCN)C(=O)N[C@@H](Cc1c[nH]cn1)C(=O)N[C@@H](CC(N)=O)C(=O)N[C@H](C(=O)N[C@H](C(=O)N[C@@H](CCC(N)=O)C(=O)O)[C@@H](C)O)[C@@H](C)CC)C(C)C [15-42OH]			cAMP Production (Fold Basal) 10 μM [1]: 1.02 ± 0.10 Fold Basal; cAMP Production (Fold Basal) 20 μM [1]: 1.01 ± 0.03 Fold Basal
